Test [1] addresses T1, hOX1R (Homo sapiens, UniProt O43613).
T1 sequence (O43613 1-425): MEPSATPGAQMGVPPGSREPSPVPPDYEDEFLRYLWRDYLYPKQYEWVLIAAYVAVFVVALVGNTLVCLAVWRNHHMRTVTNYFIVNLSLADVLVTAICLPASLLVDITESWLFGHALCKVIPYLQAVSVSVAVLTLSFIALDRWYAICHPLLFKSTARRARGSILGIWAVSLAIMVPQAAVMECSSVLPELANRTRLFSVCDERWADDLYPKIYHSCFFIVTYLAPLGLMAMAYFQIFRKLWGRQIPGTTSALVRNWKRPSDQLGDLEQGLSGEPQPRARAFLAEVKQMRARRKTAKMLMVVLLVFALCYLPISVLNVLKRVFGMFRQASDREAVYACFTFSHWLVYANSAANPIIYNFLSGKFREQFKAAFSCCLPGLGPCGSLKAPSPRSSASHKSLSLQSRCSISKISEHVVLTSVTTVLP
Kind of test: radioligand binding assay, hOX1R. More on the design: expressed in transfected cells; host or cells: membranes of CHO cells. To be noted: membranes prepared from CHO cells expressing the OX1 receptor; read-out: hOX1R BIND hKi. As to the method: (§1) The utility of the compounds in accordance with the present invention as orexin receptor OX1R and/or OX2R antagonists may be readily determined without undue experimentation by methodology well known in the art, including the “FLIPR Ca^2+ Flux Assay” (Okumura et al., Biochem. Biophys. Res. Comm. 280:976-981, 2001). In a typical experiment the OX1 and OX2 receptor antagonistic activity of the compounds of the present invention was determined in accordance with the following experimental method. For intracellular calcium measurements, Chinese hamster ovary (CHO) cells expressing the rat orexin-1 receptor or the human orexin-2 receptor, are grown in Iscove's modified DMEM containing 2 mM L-glutamine, […], 1% hypoxanthine-thymidine supplement, 100 U/ml penicillin, 100 μg/ml streptomycin and 10% heat-inactivated fetal calf serum (FCS). The cells are seeded at 20,000 cells/well into Becton-Dickinson black 384-well clear bottom sterile plates coated with poly-D-lysine. All reagents were from GIBCO-Invitrogen Corp. The seeded plates are incubated overnight at 37° C. and 5% CO2. Ala-6,12 human orexin-A as the agonist is prepared as a 1 mM stock solution in 1% bovine serum albumin (BSA) and diluted in assay buffer (HBSS containing 20 mM HEPES, 0.1% BSA and 2.5 mM probenecid, pH7.4) for use in the assay at a final concentration of 70 pM. Test compounds are prepared as 10 mM stock solution in DMSO, then diluted in 384-well plates, first in DMSO, then assay buffer. On the day of the assay, cells are washed 3 times with 100 μl assay buffer and then incubated for 60 min (37° C., 5% CO2) in 60 μl assay buffer containing 1 μM Fluo-4AM ester, 0.02% pluronic acid, and 1% BSA. The dye loading solution is then aspirated and cells are washed 3 times with 100 μl assay buffer. 30 μl of that same buffer is left in each well. Within the Fluorescent Imaging Plate Reader (FLIPR, Molecular Devices), test compounds are added to the plate in a volume of 25 μl, incubated for 5 min and finally 25 μl of agonist is added. Fluorescence is measured for each well at 1 second intervals for 5 minutes and the height of each fluorescence peak is compared to the height of the fluorescence peak induced by 70 pM Ala-6,12 orexin-A with buffer in place of antagonist. […] The intrinsic orexin receptor antagonist activity of a compound which may be used in the present invention may be determined by these assays.

In test [2] the target is T2, hOX2R (Homo sapiens, UniProt O43614).
T2 construct: expressed in transfected cells; host or cells: membranes of CHO cells
T2 sequence (O43614 1-444): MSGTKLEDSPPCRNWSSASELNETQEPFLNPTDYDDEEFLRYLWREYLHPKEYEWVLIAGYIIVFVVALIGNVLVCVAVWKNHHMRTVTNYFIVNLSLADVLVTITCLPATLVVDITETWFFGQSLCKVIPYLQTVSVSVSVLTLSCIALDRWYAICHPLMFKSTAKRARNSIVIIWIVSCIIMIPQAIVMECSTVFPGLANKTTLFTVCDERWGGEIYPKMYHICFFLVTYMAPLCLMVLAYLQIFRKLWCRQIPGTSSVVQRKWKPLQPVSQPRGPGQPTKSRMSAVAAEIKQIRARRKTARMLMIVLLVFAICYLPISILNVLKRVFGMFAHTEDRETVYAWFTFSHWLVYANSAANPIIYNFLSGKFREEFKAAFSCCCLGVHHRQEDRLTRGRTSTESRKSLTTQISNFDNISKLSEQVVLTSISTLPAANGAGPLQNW
The experiment in a line: radioligand binding assay, hOX2R. To be noted: membranes prepared from CHO cells expressing the OX2 receptor; read-out: hOX2R BIND hKi. How it is done:
as §1

The target in test [3] is T3, human orexin-2 receptor (Homo sapiens, UniProt O43614).
T3 construct: expressed in transfected cells; host or cells: CHO cells
T3 sequence (O43614 1-444): T2 sequence (O43614 1-444)
Kind of test: FLIPR Ca2+ Flux Assay, hOX2R. Particulars: CHO cells expressing the human orexin-2 receptor; agonist 70 pM Ala-6,12 orexin-A. Format: cell-based. How it is done:
The utility of the compounds in accordance with the present invention as orexin receptor OX1R and/or OX2R antagonists may be readily determined without undue experimentation by methodology well known in the art, including the “FLIPR Ca^2+ Flux Assay” (Okumura et al., Biochem. Biophys. Res. Comm. 280:976-981, 2001). In a typical experiment the OX1 and OX2 receptor antagonistic activity of the compounds of the present invention was determined in accordance with the following experimental method. For intracellular calcium measurements, Chinese hamster ovary (CHO) cells expressing the rat orexin-1 receptor or the human orexin-2 receptor, are grown in Iscove's modified DMEM containing 2 mM L-glutamine, […], 1% hypoxanthine-thymidine supplement, 100 U/ml penicillin, 100 μg/ml streptomycin and 10% heat-inactivated fetal calf serum (FCS). The cells are seeded at 20,000 cells/well into Becton-Dickinson black 384-well clear bottom sterile plates coated with poly-D-lysine. All reagents were from GIBCO-Invitrogen Corp. The seeded plates are incubated overnight at 37° C. and 5% CO2. Ala-6,12 human orexin-A as the agonist is prepared as a 1 mM stock solution in 1% bovine serum albumin (BSA) and diluted in assay buffer (HBSS containing 20 mM HEPES, 0.1% BSA and 2.5 mM probenecid, pH7.4) for use in the assay at a final concentration of 70 pM. Test compounds are prepared as 10 mM stock solution in DMSO, then diluted in 384-well plates, first in DMSO, then assay buffer. On the day of the assay, cells are washed 3 times with 100 μl assay buffer and then incubated for 60 min (37° C., 5% CO2) in 60 μl assay buffer containing 1 μM Fluo-4AM ester, 0.02% pluronic acid, and 1% BSA. The dye loading solution is then aspirated and cells are washed 3 times with 100 μl assay buffer. 30 μl of that same buffer is left in each well. Within the Fluorescent Imaging Plate Reader (FLIPR, Molecular Devices), test compounds are added to the plate in a volume of 25 μl, incubated for 5 min and finally 25 μl of agonist is added. Fluorescence is measured for each well at 1 second intervals for 5 minutes and the height of each fluorescence peak is compared to the height of the fluorescence peak induced by 70 pM Ala-6,12 orexin-A with buffer in place of antagonist. For each antagonist, IC50 value (the concentration of compound needed to inhibit 50% of the agonist response) is determined Alternatively, compound potency can be assessed by a radioligand binding assay (described in Bergman et. al. Bioorg. Med. Chem. Lett. 2008, 18, 1425-1430) in which the inhibition constant (Ki) is determined in membranes prepared from CHO cells expressing either the OX1 or OX2 receptor. The intrinsic orexin receptor antagonist activity of a compound which may be used in the present invention may be determined by these assays.

The target of test [4] is T1, hOX1R. The experiment in a line: FLIPR Ca2+ Flux Assay, hOX1R. Format: cell-based. Details: expressed in transfected cells; host or cells: CHO cells. To be noted: CHO cells expressing orexin-1 receptor; agonist 70 pM Ala-6,12 orexin-A. (Calcium assays in cells follow changes in intracellular calcium, usually with a dye or a luminescent sensor.)

SMILES strings stand for the structures.

As to `Cc1ccnc(O[C@@H]2CC[C@@H](C)N(C(=O)c3c(F)cccc3-n3nccn3)C2)c1C#N` [Example 5, 2-{[(3R,6R)-1-{[2-fluoro-6-(2H-1,2,3-triazol-2-yl)phenyl]carbonyl}-6-methylpiperidin-3-yl]oxy}-4-methylpyridine-3-carbonitrile], the Ki in test [1] came out at 3610 nM; in test [2] it was 34 nM.
For `Cc1ccnc(O[C@@H]2CC[C@@H](C)N(C(=O)c3cnccc3-n3nccn3)C2)c1C#N` [Example 4, 4-methyl-2-{[(3R,6R)-6-methyl-1-{[4-(2H-1,2,3-triazol-2-yl)pyridin-3-yl]carbonyl}piperidin-3-yl]oxy}pyridine-3-carbonitrile] the same measures were 1290 nM and 54 nM.
Take `Cc1ccnc(O[C@@H]2CC[C@@H](C)N(C(=O)c3ccc(Cl)cc3-n3nccn3)C2)c1C#N` [Example 3, 2-{[(3R,6R)-1-{[4-Chloro-2(2H-1,2,3-triazol-2-yl)phenyl]carbonyl}-6-methylpiperidin-3-yl]oxy}-4-methylpyridine-3-carbonitrile]: the IC50 (in general, the concentration needed to halve the response being measured) is 73.6 nM in test [3] and 3710 nM in test [4].
For the compound `Cc1ccnc(O[C@@H]2CC[C@@H](C)N(C(=O)c3cccc(C)c3-n3nccn3)C2)c1C#N` [Example 7, 4-methyl-2-{[(3R,6R)-6-methyl-1-{[3-methyl-2-(2H-1,2,3-triazol-2-yl)phenyl]carbonyl}piperidin-3-yl]oxy}pyridine-3-carbonitrile], the IC50 in test [3] was found to be 20.3 nM; in test [4], 457 nM.
For `Cc1ccnc(O[C@@H]2CC[C@@H](C)N(C(=O)c3ccccc3-n3nccn3)C2)c1C#N` [Example 2, 4-Methyl-2{[(3R,6R)-6-methyl-1-{[2-(2H-1,2,3-triazol-2-yl)phenyl]carbonyl}piperidin-3-yl]oxy}pyridine-3-carbonitrile] the same measures were 9.8 nM and 464 nM.
For `CSc1ccnc(O[C@@H]2CC[C@@H](C)N(C(=O)c3ccccc3-n3nccn3)C2)c1C#N` [Example 1, 4-(Methylsulfanyl)-2-{[(3R,6R)-6-methyl-1-{[2-(2H-1,2,3-triazol-2-yl)phenyl]carbonyl}-piperidin-3-yl]oxy}pyridine-3-carbonitrile] the same measures were 39 nM and 7440 nM.
The corresponding values for `Cc1ccnc(O[C@@H]2CC[C@@H](C)N(C(=O)c3ccc(F)cc3-n3nccn3)C2)c1C#N` [Example 8, 2-{[(3R,6R)-1-{[4-fluoro-2-(2H-1,2,3-triazol-2-yl)phenyl]carbonyl}-6-methylpiperidin-3-yl]oxy}-4-methylpyridine-3-carbonitrile] are 59.8 nM and 7390 nM.
`COc1cccc(-n2nccn2)c1C(=O)N1C[C@H](Oc2nccc(C)c2C#N)CC[C@H]1C` [Example 6, 2-{[(3R,6R)-1-{[2-methoxy-6-(2H-1,2,3-triazol-2-yl)phenyl]carbonyl}-6-methylpiperidin-3-yl]oxy}-4-methylpyridine-3-carbonitrile]: the IC50 is 67.6 nM in test [3] and 1160 nM in test [4].
In the case of `COc1ccc(C(=O)N2C[C@H](Oc3nccc(C)c3C#N)CC[C@H]2C)c(-n2nccn2)c1` [Example 9, 2-{[(3R,6R)-1-{[4-methoxy-2-(2H-1,2,3-triazol-2-yl)phenyl]carbonyl}-6-methylpiperidin-3-yl]oxy}-4-methylpyridine-3-carbonitrile], the Ki in test [1] was 5660 nM; in test [2], 60 nM.
Regarding `Cc1ccnc(O[C@@H]2CC[C@@H](C)N(C(=O)c3cccc(F)c3-n3nccn3)C2)c1C#N` [Example 10, 2-{[(3R,6R)-1-{[3-fluoro-2-(2H-1,2,3-triazol-2-yl)phenyl]carbonyl}-6-methylpiperidin-3-yl]oxy}-4-methylpyridine-3-carbonitrile], the concentration for half-maximal inhibition (IC50) came out at 42.6 nM in test [3] and 3650 nM in test [4].
With `COc1ccc(C(=O)N2C[C@H](Oc3nccc(C)c3C#N)CC[C@H]2C)c(-n2nccn2)n1` [Example 12, 2-{[(3R,6R)-1-{[6-methoxy-2-(2H-1,2,3-triazol-2-yl)pyridin-3-yl]carbonyl}-6-methylpiperidin-3-yl]oxy}-4-methylpyridine-3-carbonitrile], the IC50 in test [3] amounted to 280 nM; in test [4], 10000 nM.
For `Cc1ccc(-n2nccn2)c(C(=O)N2C[C@H](Oc3nccc(C)c3C#N)CC[C@H]2C)c1` [Example 11, 4-methyl-2-{[(3R,6R)-6-methyl-1-{[5-methyl-2-(2H-1,2,3-triazol-2-yl)phenyl]carbonyl}piperidin-3-yl]oxy}pyridine-3-carbonitrile], the values for the Ki in test [1] and in test [2] were 7 nM and 24 nM, respectively.

Source of the values: US9643955B2, “2-pyridyloxy-3-nitrile-4-substituted orexin receptor antagonists” (MERCK SHARP & DOHME CORP., priority 2012, dated 2017).
